Test results from patent publication US20250101041A1, “POSITIVE ALLOSTERIC MODULATORS OF THE MUSCARINIC ACETYLCHOLINE RECEPTOR M4” (Vanderbilt University, priority 2022, published 2025).

Target: T1, human mAChR M4 (Homo sapiens, UniProt P08173)
T1 construct: expressed in transfected cells; host or cells: CHO-K1 (American Type Culture Collection), stably expressing hM4 and Gqi5
T1 sequence (P08173 1-479): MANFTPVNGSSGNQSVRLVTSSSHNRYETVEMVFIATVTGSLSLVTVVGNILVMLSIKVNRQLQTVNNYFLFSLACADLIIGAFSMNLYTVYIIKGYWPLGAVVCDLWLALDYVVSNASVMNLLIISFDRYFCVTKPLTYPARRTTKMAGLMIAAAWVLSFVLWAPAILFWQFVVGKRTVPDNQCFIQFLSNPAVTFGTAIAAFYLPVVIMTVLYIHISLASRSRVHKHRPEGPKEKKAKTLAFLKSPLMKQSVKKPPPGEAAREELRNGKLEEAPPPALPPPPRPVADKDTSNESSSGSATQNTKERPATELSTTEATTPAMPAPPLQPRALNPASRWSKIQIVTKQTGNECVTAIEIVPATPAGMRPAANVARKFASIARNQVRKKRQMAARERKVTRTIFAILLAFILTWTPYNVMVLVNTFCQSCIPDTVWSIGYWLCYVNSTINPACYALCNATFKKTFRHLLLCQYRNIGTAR
Assay: mAChR M4 cell-based functional assay: calcium mobilization (Fluo-4, FDSS), potentiation of EC20 acetylcholine response in hM4-Gqi5 CHO-K1 cells
Conditions: human M4; for Emax at 30 µM: CHO-K1, % ACh maximum at 30 μM; for EC50: potentiation of EC20 acetylcholine response, calcium mobilization
Description: Human and rat M4 cDNAs, along with the chimeric G protein Gqi5, were transfected into Chinese hamster ovary (CHO-K1) cells purchased from the American Type Culture Collection using Lipofectamine2000. hM4-Gqi5 cells were grown in Ham's F-12 medium containing 10% heat-inactivated fetal bovine serum (FBS), 20 mM HEPES, 50 μg/mL G418 sulfate, and 500 μg/mL Hygromycin B. rM4-Gqi5 cells were grown in DMEM containing 10% heat-inactivated FBS, 20 mM HEPES, 400 μg/mL G418 sulfate, and 500 μg/mL Hygromycin B.
For high throughput measurement of agonist-evoked increases in intracellular calcium, CHO-K1 cells stably expressing muscarinic receptors were plated in growth medium lacking G418 and hygromycin at 15,000 cells/20 μL/well in Greiner 384-well black-walled, tissue culture (TC)-treated, clear-bottom plates (VWR). Cells were incubated overnight at 37° C. and 5% CO2. The next day, cells were washed using an ELX 405 (BioTek) with assay buffer; the final volume was then aspirated to 20 μL. Next, 20 μL of a […] of Fluo-4/acetoxymethyl ester (Invitrogen, Carlsbad, CA), prepared as a 2.3 mM stock in DMSO and mixed in a 1:1 ratio with 10% (w/v) Pluronic F-127 and diluted in assay buffer, was added to the wells and the cell plates were incubated for 50 min at 37° C. and 5% CO2. Dye was removed by washing with the ELX 405 and the final volume was aspirated to 20 μL. Compound master plates were formatted in an 11 point concentration-response curve (CRC) format (1:3 dilutions) in 100% DMSO with a starting concentration of 10 mM using a BRAVO liquid handler (Agilent). Test compound CRCs were then transferred to daughter plates (240 nL) using the Echo acoustic plate reformatter (Labcyte, Sunnyvale, CA) and then diluted into assay buffer (40 μL) to a 2× stock using a Thermo Fisher Combi (Thermo Fisher Scientific, Waltham, MA).
Calcium flux was measured using the Functional Drug Screening System (FDSS) 6000 or 7000 (Hamamatsu Corporation, Tokyo, Japan) as an increase in the fluorescent static ratio. Compounds were applied to cells (20 μL, 2X) using the automated system of the FDSS at 2-4 seconds into the protocol and the data were collected at 1 Hz. At 144 seconds, 10 μL of an EC20 concentration of the muscarinic receptor agonist acetylcholine was added (5×), followed by the addition of 12 μL of an […] concentration of acetylcholine at the 230 second time point (5×). Agonist activity was analyzed as a concentration-dependent increase in calcium mobilization upon compound addition. Positive allosteric modulator activity was analyzed as a concentration-dependent increase in the EC20 acetylcholine response. Antagonist activity was analyzed as a concentration-dependent decrease in the EC20 acetylcholine response. Concentration-response curves were generated using a four-parameter logistical equation in XLFit curve fitting software (IDBS, Bridgewater, NJ) for Excel (Microsoft, Redmond, WA) or Prism (GraphPad Software, Inc., San Diego, CA).
Compounds were synthesized as described above. Activity (EC50 and Emax) was determined in the mAChR M4 cell-based functional assay as described above and the data are shown in Table 4. The compound number corresponds to the compound numbers used in Tables 1-3.

Structure (SMILES) | Emax at 30 µM [%] | EC50 [nM]
Cc1cc2nccc(=O)n2nc1N1CCc2ncc(Nc3c(F)ccnc3C)cc2C1 [Compound 2-114, 7-(3-((4-fluoro-2-methylpyridin-3-yl)amino)-7,8-dihydro-1,6-naphthyridin-6(5H)-yl)-8-methyl-4H-pyrimido[1,2-b]pyridazin-4-one] | 82 | 165
Cc1cc(=O)n2nc(N3CCc4ncc(-c5cc(F)c(F)cc5F)cc4C3)c(C)cc2n1 [Compound 1-208, 2,8-dimethyl-7-(3-(2,4,5-trifluorophenyl)-7,8-dihydro-1,6-naphthyridin-6(5H)-yl)-4H-pyrimido[1,2-b]pyridazin-4-one] | 86 | 518
Cc1ccc(-c2cnc3c(c2)CN(c2nn4c(=O)cc(C(F)F)nc4c(C)c2C)CC3)cc1 [Compound 1-169, 2-(difluoromethyl)-8,9-dimethyl-7-(3-(p-tolyl)-7,8-dihydro-1,6-naphthyridin-6(5H)-yl)-4H-pyrimido[1,2-b]pyridazin-4-one] | 89 | 883
Cc1cc2nccc(=O)n2nc1N1CCc2ncc(NCc3cncn3C)cc2C1 [Compound 2-131, 8-methyl-7-(3-(((1-methyl-1H-imidazol-5-yl)methyl)amino)-7,8-dihydro-1,6-naphthyridin-6(5H)-yl)-4H-pyrimido[1,2-b]pyridazin-4-one] | 73 | 2790
Cc1cc2nccc(=O)n2nc1N1CCc2ncc(-c3cnn(C)c3C)cc2C1 [Compound 1-408, 7-(3-(1,5-dimethyl-1H-pyrazol-4-yl)-7,8-dihydro-1,6-naphthyridin-6(5H)-yl)-8-methyl-4H-pyrimido[1,2-b]pyridazin-4-one] | 90 | 257
Cc1cc(=O)n2nc(N3CCc4ncc(-c5cccnc5C)cc4C3)c(C)c(C)c2n1 [Compound 1-122, 2,8,9-trimethyl-7-(3-(2-methylpyridin-3-yl)-7,8-dihydro-1,6-naphthyridin-6(5H)-yl)-4H-pyrimido[1,2-b]pyridazin-4-one] | 93 | 2930
Cc1cc(=O)n2nc(N3CCc4ncc(-c5ccc(N(C)C)nc5)cc4C3)c(C)cc2n1 [Compound 1-221, 7-(3-(6-(dimethylamino)pyridin-3-yl)-7,8-dihydro-1,6-naphthyridin-6(5H)-yl)-2,8-dimethyl-4H-pyrimido[1,2-b]pyridazin-4-one] | 58 | 170
Cc1cc(=O)n2nc(N3CCc4ncc(Oc5ccccc5F)cc4C3)c(C)cc2n1 [Compound 3-2, 7-(3-(2-fluorophenoxy)-7,8-dihydro-1,6-naphthyridin-6(5H)-yl)-2,8-dimethyl-4H-pyrimido[1,2-b]pyridazin-4-one] | 80 | 55

Other lines, results leading:

Emax at 30 µM [%] | EC50 [nM] | Structure (SMILES)
87 | – | Cc1cc2nccc(=O)n2nc1N1CCc2ncc(N3CCOC(c4ccccc4)C3)cc2C1 (stereo in doubt) [Compound 2-73, (S)-8-methyl-7-(3-(2-phenylmorpholino)-7,8-dihydro-1,6-naphthyridin-6(5H)-yl)-4H-pyrimido[1,2-b]pyridazin-4-one]
79 | 334 | Cc1c(N2CCc3ncc(N4CCC(F)(F)CC4)cc3C2)nn2c(=O)cc(C(F)F)nc2c1C [Compound 2-48, 2-(difluoromethyl)-7-(3-(4,4-difluoropiperidin-1-yl)-7,8-dihydro-1,6-naphthyridin-6(5H)-yl)-8,9-dimethyl-4H-pyrimido[1,2-b]pyridazin-4-one]
79 | 652 | Cc1cc2nccc(=O)n2nc1N1CCc2ncc(N3CCOC(c4ccccc4)C3)cc2C1 (centres unmarked) [Compound 2-66, 8-methyl-7-(3-(2-phenylmorpholino)-7,8-dihydro-1,6-naphthyridin-6(5H)-yl)-4H-pyrimido[1,2-b]pyridazin-4-one]
95 | 648 | Cc1cc(=O)n2nc(N3CCc4ncc(-c5cnn6ccccc56)cc4C3)c(C)c(C)c2n1 [Compound 1-181, 2,8,9-trimethyl-7-(3-(pyrazolo[1,5-a]pyridin-3-yl)-7,8-dihydro-1,6-naphthyridin-6(5H)-yl)-4H-pyrimido[1,2-b]pyridazin-4-one]
